Experimental data published in paper PMC6309379 (Journal of medicinal chemistry, 2018).

What was measured:
BRD4-BD1 = BRD4-BD1 (Homo sapiens, UniProt O60885); experiment: BROMOscan; assay type: binding; settings: 1 uM, control DMSO
PLK kinases (PLK1–3) = experiment: KINOMEscan; assay type: binding; settings: 1 uM, control DMSO
MOLM13 cells = experiment: Cell cycle study, propidium iodide staining; assay type: cell-based, human; settings: MOLM13, 1 μM, 24 h

BRD4-BD1 % of control (BRD4-BD1) | PLK kinases % of control (PLK kinases (PLK1–3)) | SMILES | cell cycle arrest (MOLM13 cells)
12 % of control | 0.3–0.5 % of control | COc1cc(C(=O)NC2CCN(C)CC2)ccc1Nc1ncc2c(n1)N(C1CCCC1)[C@H](C)C(=O)N2C [Compound 5, (R)-4-((8-cyclopentyl-5,7-dimethyl-6-oxo-5,6,7,8-tetrahydropteridin-2-yl)amino)-3-methoxy-N-(1-methylpiperidin-4-yl)benzamide] | –
– | – | C[C@@H]1C(=O)N(C)c2cnc(Nc3ccc(C(=O)NC4CCN(C)CC4)cc3OC3CCCC3)nc2N1C1CCCC1 [Compound 23, (R)-4-((8-cyclopentyl-5,7-dimethyl-6-oxo-5,6,7,8-tetrahydropteridin-2-yl)amino)-3-(cyclopentyloxy)-N-(1-methylpiperidin-4-yl)benzamide] | cell cycle arrest in the G1/G2 stage of the cell cycle
– | – | CC[C@@H]1C(=O)N(C)c2cnc(Nc3ccc(C(=O)NC4CCN(C)CC4)cc3OC)nc2N1C1CCCC1 [BI-2536, reference compound] | G1/G2 arrest
